Test results reported in patent publication EP1268431B1 (Wyeth, priority 2000, dated 2001).

Assays:
[1] = tested on: human adenocarcinoma cell line CaCo-2; assay: Cell Based Screen for Inhibitors of Raf Kinase, CaCo-2 cells; conditions: CaCo-2, four days, SRB
Protocol: (§1) • Cell Lines: Human adenocarcinoma cell line LoVo which is known to be growth inhibited by low nM concentrations of a reference standard inhibitor of Ras and human adenocarcinoma cell line CaCo-2, which is known to be growth resistant to the same reference compound. • Cell Media: RPMI 1640 with 10% Fetal Bovine Serum supplemented with L-glutamine and Pennicilin/Streptomycin. • Compounds: Supplied usually as a 10 mM stock in 100% DMSO. • Normal Saline: 150 mM NaCl • Trichloroacetic Acid (TCA): 50% (w/v) in water • Sulforhodamine B (SRB): 0.4% (w/v) in 1% Acetic Acid • Tris Base: 10 mM in water
(§2) Cells are plated at 2000 cells per well for cell line LoVo and 1500 cells for cell line CaCo-2 in 96 well plates. Cells are plated in media (200 µl) and allowed to adhere overnight at 37° C. At 24 hours post plating, compounds are added directly at a volume of 0.5 µl. For the qualitative screen (compounds screened at 25 µM) compound is added directly to cells. For the quantitative screen, compound is first diluted in DMSO to generate concentrations of compound or reference standard of: 1, 5, 10 and 25 µM. It is advisable to make the dilutions in an identical 96 well plate so that compounds may be added using a multichannel micropipettor set at 0.5 µl. The cells are then incubated for four days after which the media is removed using a 12 well manifold by first tipping the plate forward at a 45 degree angle and then inserting the manifold in an upright orientation to prevent the tips of the manifold from disturbing cells at the bottom of the plate. 200 µl of normal saline is then added to each well using an 8 well multichannel pipettor, followed by the careful addition of 50 µl of 50% TCA. The plates are then incubated for 2 hours at 4 ° C, after which the supernatant is removed using the same technique as above and the plated washed twice with 200 µl water. The plates are then air dried and 50 µl of SRB stock solution is carefully added so that the entire bottom of each well is covered. This again may be used using an 8 well multichannel pipettor. The SRB is incubated with fixed cells for 15 minutes at room temperature after which the SRB is removed with the manifold as described above and the plates washed twice with 350 µl of 1% acetic acid per well each time.The plates are then air dried after which the bound SRB is released from protein by the addition of 200 µl of Tris base. Resolubilizing the SRB is aided by placing the plates on a rotator for 15-30 minutes. The absorbance of each well is determined at 550 or 562 nm using a microtiter plate reader.
(§3) Each compound or dilution thereof is performed in triplicate. Outliers are identified by visual inspection of the data. Each plate should have a "0" control (vehicle only).
(§4) Quantitative Assay: A standard curve is constructed by plotting the concentration of compound against the average absorbance calculated at that concentration. A curve is plotted and the concentration at which the curve passes through the 50% the absorbance mark seen in the "0" control well is the IC50 calculated for that compound. […]

[2] = tested on: Human adenocarcinoma cell line LoVo; assay: Cell Based Screen for Inhibitors of Raf Kinase, LoVo cells; conditions: four days, SRB
Protocol: as §1, §2, §3, §4

Compound	IC50 ([1]; Homo sapiens, Caco-2, 96 h)	IC50 ([2]; Homo sapiens, 96 h)	IC50 [1]	IC50 [2]
CN(CCO)Cc1ccc(-c2ccc3c(Nc4ccc(Sc5nccn5C)c(Cl)c4)c(C#N)cnc3c2)nc1 [Example 106, 4-({3-Chloro-4-[(1-methyl-1H-imidazol-2-yl)sulfanyl]phenyl}amino)-7-(5-{[(2-hydroxyethyl)(methyl)amino]methyl}-2-pyridinyl)-3-quinolinecarbonitrile]	> 1000 nM	6.4 nM		
Cn1ccnc1Sc1ccc(Nc2c(C#N)cnc3cc(-c4ccc(CN5CCN(CCO)CC5)s4)ccc23)cc1Cl [Example 161, 4-{3-chloro-4-[(1-methyl-1H-imidazol-2-yl)sulfanyl]anilino}-7-(5-{[4-(2-hydroxyethyl)-1-piperazinyl]methyl}-2-thienyl)-3-quinolinecarbonitrile]	> 1000 nM	5.6 nM		
CCN1CCN(Cc2ccnc(-c3ccc4c(Nc5ccc(Sc6nccn6C)c(Cl)c5)c(C#N)cnc4c3)c2)CC1 [Example 205, 4-({3-chloro-4-[(1-methyl-1H-imidazol-2-yl)sulfanyl]phenyl}amino)-7-{4-[(4-ethyl-1-piperazinyl)methyl]-2-pyridinyl}-3-quinolinecarbonitrile]	940 nM	275 nM		
Cn1ccnc1Sc1ccc(Nc2c(C#N)cnc3cc(-c4ccc(C(=O)N5CCOCC5)cc4)ccc23)cc1Cl [Example 129, 4-({3-Chloro-4-[(1-methyl-1H-imidazol-2-yl)sulfanyl]phenyl}amino)-7-[4-(4-morpholinylcarbonyl)phenyl]-3-quinolinecarbonitrile]	> 1000 nM	42 nM		
CCN1CCN(c2ccc(-c3ccc4c(Nc5ccc(Sc6nccn6C)c(Cl)c5)c(C#N)cnc4c3)nc2)CC1 [Example 108, 4-({3-Chloro-4-[(1-methyl-1H-imidazol-2-yl)sulfanyl]phenyl}amino)-7-[5-(4-ethyl-1-piperazinyl)-2-pyridinyl]-3-quinolinecarbonitrile]	390 nM	2.6 nM		
Cn1ccnc1Sc1ccc(Nc2c(C#N)cnc3cc(-c4ccc(CN5CCC(O)CC5)cc4)ccc23)cc1Cl [Example 134, 4-{3-chloro-4-[(1-methyl-1H-imidazol-2-yl)sulfanyl]anilino}-7-{4-[(4-hydroxy-1-piperidinyl)methyl]phenyl}-3-quinolinecarbonitrile]	> 1000 nM	4.6 nM		
Cn1ccnc1Sc1ccc(Nc2c(C#N)cnc3cc(-c4cc(CN5CCOCC5)ccn4)ccc23)cc1Cl [Example 203, 4-({3-chloro-4-[(1-methyl-1H-imidazol-2-yl)sulfanyl]phenyl}amino)-7-[4-(4-morpholinylmethyl)-2-pyridinyl]-3-quinolinecarbonitrile]	> 1000 nM	9.7 nM		
Cn1ccnc1Sc1ccc(Nc2c(C#N)cnc3cc(-c4ccc(C=O)cn4)ccc23)cc1Cl [Example 170, 4-{3-chloro-4-[(1-methyl-1H-imidazol-2-yl)sulfanyl]anilino}-7-(5-formyl-2-pyridinyl)-3-quinolinecarbonitrile]	> 10000 nM	50 nM	5000 nM	
CCN1CCN(Cc2cccc(-c3ccc4c(Nc5ccc(Sc6nccn6C)c(Cl)c5)c(C#N)cnc4c3)n2)CC1 [Example 201, 4-{3-chloro-4-[(1-methyl-1H-imidazol-2-yl)sulfanyl]anilino}-7-{6-[(4-ethyl-1-piperazinyl)methyl]-2-pyridinyl}-3-quinolinecarbonitrile]	> 1000 nM	8.4 nM		
N#Cc1cnc2cc(-c3cc(CN4CCOCC4)c(CN4CCOCC4)s3)ccc2c1Nc1ccc(Oc2ccccc2)cc1 [Example 168, 7-[4,5-bis(4-morpholinylmethyl)-2-thienyl]-4-(4-phenoxyanilino)-3-quinolinecarbonitrile]	4600 nM	2000 nM		
CN1CCN(Cc2ccnc(-c3ccc4c(Nc5ccc(Sc6nccn6C)c(Cl)c5)c(C#N)cnc4c3)c2)CC1 [Example 206, 4-({3-chloro-4-[(1-methyl-1H-imidazol-2-yl)sulfanyl]phenyl}amino)-7-{4-[(4-methyl-1-piperazinyl)methyl]-2-pyridinyl}-3-quinolinecarbonitrile]	> 1000 nM	280 nM		
Cn1ccnc1Sc1ccc(Nc2c(C#N)cnc3cc(-c4ccc(N5CCN(CCO)CC5)nc4)ccc23)cc1Cl [Example 215, 4-({3-chloro-4-[(1-methyl-1H-imidazol-2-yl)sulfanyl]phenyl}amino)-7-{6-[4-(2-hydroxyethyl)-1-piperazinyl]-3-pyridinyl}-3-quinolinecarbonitrile]	> 1000 nM	3.5 nM		
COCCN(C)c1ccc(-c2ccc3c(Nc4ccc(Sc5nccn5C)c(Cl)c4)c(C#N)cnc3c2)cn1 [Example 212, 4-({3-chloro-4-[(1-methyl-1H-imidazol-2-yl)sulfanyl]phenyl}amino)-7-{6-[(2-methoxyethyl)(methyl)amino]-3-pyridinyl}-3-quinolinecarbonitrile]	780 nM	4 nM		
COc1cc2c(Nc3ccc(Sc4nccn4C)c(Cl)c3)c(C#N)cnc2cc1-c1csc(CN2CCN(C)CC2)c1 [Example 126, 4-{3-Chloro-4-[(1-methyl-1H-imidazol-2-yl)sulfanyl]anilino}-6-methoxy-7-{5-[(4-methyl-1-piperazinyl)methyl]-3-thienyl}-3-quinolinecarbonitrile]	> 1000 nM	75 nM		
Cn1ccnc1Sc1ccc(Nc2c(C#N)cnc3cc(-c4ccc(CN5CCC(O)CC5)s4)ccc23)cc1Cl [Example 159, 4-{3-chloro-4-[(1-methyl-1H-imidazol-2-yl)sulfanyl]anilino}-7-{5-[(4-hydroxy-1-piperidinyl)methyl]-2-thienyl}-3-quinolinecarbonitrile]	710 nM	4.2 nM		
Cn1ccnc1Sc1ccc(Nc2c(C#N)cnc3cc(-c4ccc(N5CCSCC5)nc4)ccc23)cc1Cl [Example 110, 4-({3-Chloro-4-[(1-methyl-1H-imidazol-2-yl)sulfanyl]phenyl}amino)-7-[6-(4-thiomorpholinyl)-3-pyridinyl]-3-quinolinecarbonitrile]	> 1000 nM	10 nM		
Cn1ccnc1Sc1ccc(Nc2c(C#N)cnc3cc(-c4cccc(CN5CCOCC5)n4)ccc23)cc1Cl [Example 199, 4-{3-chloro-4-[(1-methyl-1H-imidazol-2-yl)sulfanyl]anilino}-7-[6-(4-morpholinylmethyl)-2-pyridinyl]-3-quinolinecarbonitrile]	> 1000 nM	9.5 nM		
Cn1ccnc1Sc1ccc(Nc2c(C#N)cnc3cc(-c4ccc(CN5CCN(CCO)CC5)o4)ccc23)cc1Cl [Example 157, 4-{3-chloro-4-[(1-methyl-1H-imidazol-2-yl)sulfanyl]anilino}-7-(5-{[4-(2-hydroxyethyl)-1-piperazinyl]methyl}-2-furyl)-3-quinolinecarbonitrile]	> 1000 nM	24.5 nM		
CN(CCO)c1ccc(-c2ccc3c(Nc4ccc(Sc5nccn5C)c(Cl)c4)c(C#N)cnc3c2)cn1 [Example 216, 4-({3-chloro-4-[(1-methyl-1H-imidazol-2-yl)sulfanyl]phenyl}amino)-7-{6-[(2-hydroxyethyl)(methyl)amino]-3-pyridinyl}-3-quinolinecarbonitrile]	> 1000 nM	7 nM		
CCN1CCN(Cc2ccc(-c3ccc4c(Nc5ccc(Sc6nccn6C)c(Cl)c5)c(C#N)cnc4c3)cn2)CC1 [Example 220, 4-({3-chloro-4-[(1-methyl-1H-imidazol-2-yl)sulfanyl]phenyl}amino)-7-{6-[(4-ethyl-1-piperazinyl)methyl]-3-pyridinyl}-3-quinolinecarbonitrile]	> 1000 nM	7.7 nM		
Cn1ccnc1Sc1ccc(Nc2c(C#N)cnc3cc(-c4ccc(N5CCOCC5)nc4)ccc23)cc1Cl [Example 190, 4-{3-chloro-4-[(1-methyl-1H-imidazol-2-yl)sufanyl]anilino}-7-[6-(4-morpholinyl)-3-pyridinyl]-3-quinolinecarbonitrile]		2 nM		
Cn1ccnc1Sc1ccc(Nc2c(C#N)cnc3cc(-c4cc(CN5CCOCC5)c(CN5CCOCC5)s4)ccc23)cc1Cl [Example 169, 7-[4,5-bis(4-morpholinylmethyl)-2-thienyl]-4-{3-chloro-4-[(1-methyl-1H-imidazol-2-yl)sulfanyl]anilino}-3-quinolinecarbonitrile]		40 nM		47 nM
